Data as given in patent US20090155376A1, “PROTEIN HYDROLYSATE WITH ANTIDIABETIC EFFECT” (MG PHARMA INC., priority 2004, published 2009).
Where a SMILES comes first, the peptide text is derived from it.

Test system: male and female ICR mice
Assay: Safety test, oral administration to mice
Assay type: in vivo
Settings: 10 g/kg (maximum allowable dose) or greater
Excerpt: The peptide having the amino acid sequence Val-Val-Tyr-Pro (SEQ. ID. No. 1) prepared in Example 2 was orally administered to male and female ICR mice in an amount of 10 g/kg (maximum allowable dose) or greater, and there were no fatalities, thereby establishing the safety of the peptide.

## CC(C)[C@H](N)C(=O)N[C@H](C(=O)N[C@@H](Cc1ccc(O)cc1)C(=O)N1CCC[C@H]1C(=O)O)C(C)C [Peptide (VVYP), Val-Val-Tyr-Pro] (H-VVYP-OH)
  Fatalities: no fatalities
